Laboratory results as given in patent US9073875B2, “Compounds useful as inhibitors of indoleamine 2,3-dioxygenase” (Vertex Pharmaceuticals Incorporated, priority 2012, dated 2015).
pIC50: −log10 of the molar value.

Target: T1, IDO1 (Homo sapiens, UniProt P14902)
T1 construct: HeLa cells in which IDO1 expression is induced by IFN-γ; endogenous in cells; host or cells: HeLa cells stimulated with human recombinant IFN-γ
Assay: Cellular IDO1 Inhibition Assay (L-kynurenine production by IFN-γ-stimulated HeLa cells)
Assay type: cell-based
Conditions: IDO1 induced by IFN-γ, 250 μM L-tryptophan, 48 hours, L-kynurenine by Ehrlich's reagent, maximal concentration 40 μM
Method: Compounds can be screened for their ability to inhibit intracellular IDO1 activity, by measuring the production of L-kynurenine by HeLa cells in which IDO1 expression is induced by IFN-γ. Kynurenine levels can be determined by chemical conversion of L-kynurenine with Ehrlich's reagent (Yue et. al., J Med Chem 2009 Dec. 10; 52(23):7364-7).
HeLa cells were plated at 20,000 cells per well in 96-well culture plates (Costar 3598) in DMEM (Sigma D5671) supplemented with 10% fetal bovine serum (SAFC Biosciences 12003C), Penicillin/Streptomycin solution diluted 1:100 (Sigma P7539), 4 mM L-glutamine (Sigma G7513), 1% Non Essential Aminoacids (Sigma M7145) and 1 mM Sodium Pyruvate (Sigma S8636). Cells were allowed to adhere for 24 hours at 37° C. in 5% CO2. Subsequently compounds were first serially diluted 1/3 in DMSO then further diluted in media and finally added to the cells, giving a maximal final concentration of 40 μM. Additional medium containing L-tryptophan to a final concentration of 250 μM (Sigma T0254) and human recombinant IFN-γ (R&D Systems 285-IF) were added to the wells to stimulate IDO1 production. Cells were incubated at 37° C. in 5% CO2 for 48 hours.
For the measurement of L-kynurenine in HeLa supernatants, plates were centrifuged at 1000 RPM for 5 minutes and 140 μl of media transferred into a polypropylene 96 well plate (Costar 3879) containing 10 μl of 26% Trichloroacetic Acid in water (Sigma T9159). Plates were then sealed using a plate sealer (PlateLoc, Agilent Technology) and incubated at 50° C. for 30 minutes. Plates were centrifuged at 2400 RPM for 10 minutes and 100 μl of media transferred to polystyrene 96-well plates together with 100 μl of Ehrlich's reagent (2% p-Dimethylaminobenzaldehyde, (Sigma D2004) in acetic acid (Fisher, A/400/PB17)). Following the addition of Ehrlich's reagent the absorbance at 490 nm was read using a spectrophotometer (Spectramax Plus, Molecular Devices). Kynurenine levels were plotted against compound concentrations to generate dose response curves and obtain […] values for each active compound using Genedata Screener® Software.
Cellular […] values for each compound may be found in Table 2, below, wherein A=<0.1 μM; B=0.1 μM-1 μM; and C=1 μM-40 μM.

T1 sequence (P14902 whole entry): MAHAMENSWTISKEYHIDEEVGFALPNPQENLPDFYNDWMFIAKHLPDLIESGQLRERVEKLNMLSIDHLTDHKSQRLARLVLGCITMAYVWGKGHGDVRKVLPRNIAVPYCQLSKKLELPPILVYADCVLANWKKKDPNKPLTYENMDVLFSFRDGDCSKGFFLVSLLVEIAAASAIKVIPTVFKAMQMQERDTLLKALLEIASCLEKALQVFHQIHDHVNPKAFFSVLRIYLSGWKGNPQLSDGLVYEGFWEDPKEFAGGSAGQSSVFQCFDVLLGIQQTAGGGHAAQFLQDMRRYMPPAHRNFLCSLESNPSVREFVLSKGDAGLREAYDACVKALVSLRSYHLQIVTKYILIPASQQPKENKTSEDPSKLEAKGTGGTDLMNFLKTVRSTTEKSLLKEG

| SMILES | pIC50 |
| --- | --- |
| Clc1ccc(Nc2cn[nH]n2)cc1 [Compound I-2] | > 7.00 |
| Brc1ccc(Nc2c[nH]nn2)cc1 [Compound I-3] | > 7.00 |
| Cc1cc(Cl)ccc1Nc1c[nH]nn1 [Compound I-5] | > 7.00 |
| COCCc1cc(Cl)ccc1Nc1cn[nH]n1 [Compound I-6] | > 7.00 |
| CCc1cc(Nc2cnn[nH]2)ccc1Cl [Compound I-7] | 6.00 to 7.00 |
| COc1cc(Nc2cn[nH]n2)ccc1Cl [Compound I-8] | 6.00 to 7.00 |
| Clc1ccc(Nc2c[nH]nn2)c(OCCN2CCOCC2)c1 [Compound I-10] | 6.00 to 7.00 |
| COc1cc(Cl)ccc1Nc1cn[nH]n1 [Compound I-12] | 6.00 to 7.00 |
| Fc1cc(Nc2c[nH]nn2)ccc1Cl [Compound I-14] | 6.00 to 7.00 |
| Cc1cc(Cl)cc(C)c1Nc1cnn[nH]1 [Compound I-15] | 6.00 to 7.00 |
| Clc1cc(Cl)cc(Nc2cn[nH]n2)c1 [Compound I-16] | 6.00 to 7.00 |
| Fc1ccc(Nc2cnn[nH]2)cc1Br [Compound I-18] | 6.00 to 7.00 |
| Clc1ccc(Nc2cnn[nH]2)cc1Cl [Compound I-19] | 6.00 to 7.00 |
| Clc1ccc(Nc2cnn[nH]2)cn1 [Compound I-22, 6-chloro-N-(2H-1,2,3-triazol-4-yl)pyridin-3-amine] | 4.40 to 6.00 |
| CN(Cc1cc(Cl)ccc1Nc1c[nH]nn1)C(=O)OC(C)(C)C [Compound I-23] | 4.40 to 6.00 |
| Fc1ccc(Nc2cnn[nH]2)cc1 [Compound I-24] | 6.00 to 7.00 |

| SMILES | pIC50 |
| --- | --- |
| Clc1ccc(Nc2cn[nH]n2)c(I)c1 [Compound I-25] | 4.40 to 6.00 |
| O=C(O)C1CC(Cc2cc(Cl)ccc2Nc2cn[nH]n2)C1 (centres unmarked) [Compound I-28, 3-(2-((2H-1,2,3-triazol-4-yl)amino)-5-chlorobenzyl)cyclobutanecarboxylic acid] | 4.40 to 6.00 |
| O=C(O)CCc1cc(Cl)ccc1Nc1cn[nH]n1 [Compound I-31] | 4.40 to 6.00 |
| CC(C)C(Cc1cc(Cl)ccc1Nc1cn[nH]n1)C(=O)O (centres unmarked) [Compound I-32] | 4.40 to 6.00 |
| CC(C)(Cc1cc(Cl)ccc1Nc1cn[nH]n1)C(=O)O [Compound I-33, 3-(2-((2H-1,2,3-triazol-4-yl)amino)-5-chlorophenyl)-2,2-dimethylpropanoic acid] | 4.40 to 6.00 |
| CC(C)(C)C(Cc1cc(Cl)ccc1Nc1cn[nH]n1)C(=O)O (centres unmarked) [Compound I-35] | 4.40 to 6.00 |
| Cc1cc(F)ccc1Nc1c[nH]nn1 [Compound I-36, N-(4-fluoro-2-methylphenyl)-2H-1,2,3-triazol-4-amine] | > 7.00 |
| Brc1cccc(Nc2cn[nH]n2)c1 [Compound I-37] | 6.00 to 7.00 |
| Cc1cc(Nc2cnn[nH]2)ccc1Cl [Compound I-38] | 6.00 to 7.00 |
| Cc1cc(Cl)cc(Nc2cnn[nH]2)c1 [Compound I-41] | 6.00 to 7.00 |
| CN(C)S(=O)(=O)CCc1cc(Cl)ccc1Nc1cnn[nH]1 [Compound I-43] | 6.00 to 7.00 |
| N#Cc1cc(Nc2cn[nH]n2)ccc1Cl [Compound I-44, 5-((2H-1,2,3-triazol-4-yl)amino)-2-chlorobenzonitrile] | 6.00 to 7.00 |
| Fc1cccc(Nc2cnn[nH]2)c1 [Compound I-45, N-(3-fluorophenyl)-2H-1,2,3-triazol-4-amine] | 6.00 to 7.00 |
| Clc1ccc(Nc2cnn[nH]2)c(CCN2CCOCC2)c1 [Compound I-46] | 6.00 to 7.00 |
| Clc1ccc(Nc2cnn[nH]2)c(CCCN2CCOCC2)c1 [Compound I-47] | 6.00 to 7.00 |
| CN1CCN(CCOc2cc(Cl)ccc2Nc2cnn[nH]2)CC1 [Compound I-48] | 6.00 to 7.00 |

Second part, the compound after the results:

| pIC50 | SMILES |
| --- | --- |
| > 7.00 | CCc1cc(Cl)ccc1Nc1cnn[nH]1 [Compound I-1] |
| > 7.00 | COCc1cc(Cl)ccc1Nc1cnn[nH]1 [Compound I-4] |
| 6.00 to 7.00 | OCc1cc(Cl)ccc1Nc1cnn[nH]1 [Compound I-9, (2-((2H-1,2,3-triazol-4-yl)amino)-5-chlorophenyl)methanol] |
| 6.00 to 7.00 | Clc1cccc(Nc2cnn[nH]2)c1 [Compound I-11] |
| 6.00 to 7.00 | Fc1ccc(Nc2cnn[nH]2)cc1Cl [Compound I-13, N-(3-chloro-4-fluorophenyl)-2H-1,2,3-triazol-4-amine] |
| 6.00 to 7.00 | CNS(=O)(=O)CCc1cc(Cl)ccc1Nc1cnn[nH]1 [Compound I-17] |
| 6.00 to 7.00 | CC(=O)NCc1cc(Cl)ccc1Nc1cnn[nH]1 [Compound I-20, N-(2-((2H-1,2,3-triazol-4-yl)amino)-5-chlorobenzyl)acetamide] |
| 4.40 to 6.00 | CS(=O)(=O)NCc1cc(Cl)ccc1Nc1cnn[nH]1 [Compound I-21] |
| 4.40 to 6.00 | Clc1ccc(Nc2cnn[nH]2)c(Cl)c1 [Compound I-27] |
| 4.40 to 6.00 | Clc1ccccc1Nc1cnn[nH]1 [Compound I-29] |
| 4.40 to 6.00 | Fc1cc(Cl)ccc1Nc1cnn[nH]1 [Compound I-30] |
| 4.40 to 6.00 | NCc1cc(Cl)ccc1Nc1cnn[nH]1 [Compound I-34, N-(2-(aminomethyl)-4-chlorophenyl)-2H-1,2,3-triazol-4-amine] |
| 6.00 to 7.00 | Cc1c(Cl)cccc1Nc1cnn[nH]1 [Compound I-39] |
| > 7.00 | C=Cc1cc(Cl)ccc1Nc1cnn[nH]1 [Compound I-40] |
| > 7.00 | Cc1ccc(Cl)cc1Nc1cnn[nH]1 [Compound I-42] |
